Experiments:
Botrytis cinerea = assay: Test Example B: Gray mold on tomato; conditions: for Test B control value class: class of control value
Plasmopara viticola = assay: Test Example G: Downy mildew on vine; conditions: for Test G control value: 7 to 10 days after inoculation; for Test G control value class: Downy mildew on vine (Neomuscat), 2.5 ml/pot, assessed 7 to 10 days after inoculation
[1] = test system: Colletotrichum orbiculare; assay: Test Example H: Anthracnose on cucumber; conditions: for Test H control value: 6 to 10 days after inoculation; for Test H control value class: Anthracnose on cucumber (Sagami Hanjiro), 2.5 ml/pot, assessed 6 to 10 days after inoculation
[2] = test system: Blumeria graminis f. sp. hordei; assay: Test Example D: Powdery mildew on barley; conditions: for Test D control value class: class of control value
Puccinia recondita = assay: Test Example E: Brown rust on wheat; assay type: in vivo; conditions: for Test E control value class: class of control value
Phytophthora infestans = assay: whole plant or invertebrate; assay type: in vivo; conditions: for Test F control value class: class of control value
Alternaia brassicicola = assay: Test Example C: Alternaria sooty spot on cabbage; assay type: in vivo; conditions: for Test C control value class: class of control value
Source text: Seeds of a test plant (cabbage variety: Shikidori) were planted and cultivated until the cotyledons extended.
<Control Value> Control value=100{1−(n/3)}

Magnaporthe grisea = assay: whole plant or invertebrate; assay type: in vivo; conditions: for Test A control value class: class of control value
[3] = 250 ppm drug solution sprayed on test plant
[4] = 250 ppm drug solution sprayed (2.5 ml/pot), grape Neomuscat
[5] = 250 ppm drug solution sprayed (2.5 ml/pot), cucumber Sagami Hanjiro
[6] = Gray mold on tomato, control value class
[7] = Downy mildew on vine, 250 ppm spray
[8] = Anthracnose on cucumber, 250 ppm spray
[9] = Powdery mildew on barley, control value class
[10] = Brown rust on wheat, control value class
[11] = Late blight on tomato, control value class
[12] = Alternaria sooty spot on cabbage, control value class
[13] = Blast on rice, control value class
[14] = Alternaria sooty spot on cabbage

Row | SMILES | Test B control value (Botrytis cinerea; [3]) | Test G control value (Plasmopara viticola; [4]) | Test H control value [1, 5] | Test D control value [2, 3] | Test E control value (Puccinia recondita; [3]) | Test F control value (Phytophthora infestans; [3]) | Test C control value (Alternaia brassicicola; [3]) | Test A control value (Magnaporthe grisea; [3]) | Test B control value (Botrytis cinerea; [6]) | Test G control value (Plasmopara viticola; [7]) | Test H control value [1, 8] | Test D control value [2, 9] | Test E control value (Puccinia recondita; [10]) | Test F control value (Phytophthora infestans; [11]) | Test C control value (Alternaia brassicicola; [12]) | Test A control value (Magnaporthe grisea; [13]) | further results
1 | CCCc1cc(I)c(=O)n(CC(F)F)c1-c1c(F)cccc1F [compound 494] | H (more than 50% control value) | H (more than 50% control value) | H (more than 50% control value) | H (more than 50% control value) | H (more than 50% control value) | L (50% or less control value) | H (more than 50% control value) | H (more than 50% control value) | – | – | – | – | – | – | – | – | –
2 | CCn1c(-c2c(F)cc(F)cc2F)c(C#N)cc(Cl)c1=O [compound 230] | – | – | – | – | – | – | – | – | L (50% or less control value) | H (more than 50% control value) | L (50% or less control value) | L (50% or less control value) | L (50% or less control value) | L (50% or less control value) | L (50% or less control value) | L (50% or less control value) | –
3 | CCn1c(-c2ccc(F)cc2Cl)c(C2CCCCC2)cc(Br)c1=O [compound 182] | – | – | – | – | – | – | – | – | – | – | – | – | – | – | – | – | Test B control value class (Botrytis cinerea; Gray mold on tomato): H (more than 50% control value); Test G control value class (Plasmopara viticola; 250 ppm spray): L (50% or less control value); Test H control value class ([1]; 250 ppm spray): L (50% or less control value); Test D control value class ([2]; Powdery mildew on barley): H (more than 50% control value); Test E control value class (Puccinia recondita; Brown rust on wheat): H (more than 50% control value); Test F control value class (Phytophthora infestans; Late blight on tomato): L (50% or less control value); Test C control value class (Alternaia brassicicola; [14]): H (more than 50% control value); Test A control value class (Magnaporthe grisea; Blast on rice): H (more than 50% control value)
4 | CCn1c(-c2c(F)cc(F)cc2F)c(C(O)C(C)C)ccc1=O (centres unmarked) [compound 453] | H (more than 50% control value) | H (more than 50% control value) | H (more than 50% control value) | H (more than 50% control value) | H (more than 50% control value) | L (50% or less control value) | H (more than 50% control value) | L (50% or less control value) | – | – | – | – | – | – | – | – | –
5 | CCn1c(-c2c(F)cc(F)cc2F)c(CC(C)C)cc(Br)c1=O [compound 40] | – | – | – | – | – | – | – | – | – | – | – | – | – | – | – | – | Test B control value class (Botrytis cinerea; Gray mold on tomato): H (more than 50% control value); Test G control value class (Plasmopara viticola; 250 ppm spray): L (50% or less control value); Test H control value class ([1]; 250 ppm spray): H (more than 50% control value); Test D control value class ([2]; Powdery mildew on barley): H (more than 50% control value); Test E control value class (Puccinia recondita; Brown rust on wheat): H (more than 50% control value); Test F control value class (Phytophthora infestans; Late blight on tomato): L (50% or less control value); Test C control value class (Alternaia brassicicola; [14]): H (more than 50% control value); Test A control value class (Magnaporthe grisea; Blast on rice): H (more than 50% control value)
6 | CCn1c(-c2c(F)cccc2F)c(C(C)O)cc(Cl)c1=O (centres unmarked) [compound 17] | – | – | – | – | – | – | – | – | – | – | – | – | – | – | – | – | Test B control value class (Botrytis cinerea; Gray mold on tomato): H (more than 50% control value); Test G control value class (Plasmopara viticola; 250 ppm spray): H (more than 50% control value); Test H control value class ([1]; 250 ppm spray): H (more than 50% control value); Test D control value class ([2]; Powdery mildew on barley): L (50% or less control value); Test E control value class (Puccinia recondita; Brown rust on wheat): H (more than 50% control value); Test F control value class (Phytophthora infestans; Late blight on tomato): H (more than 50% control value); Test C control value class (Alternaia brassicicola; [14]): H (more than 50% control value); Test A control value class (Magnaporthe grisea; Blast on rice): L (50% or less control value)
7 | CCOC(C)(c1cc(Br)c(=O)n(CC)c1-c1c(F)cc(OC)cc1F)C(C)C (centres unmarked) [compound 468] | H (more than 50% control value) | H (more than 50% control value) | H (more than 50% control value) | H (more than 50% control value) | H (more than 50% control value) | H (more than 50% control value) | H (more than 50% control value) | H (more than 50% control value) | – | – | – | – | – | – | – | – | –
8 | COC(C)(c1cc(Br)c(=O)n(C)c1-c1c(F)cc(F)cc1F)C(C)C (centres unmarked) [compound 432] | H (more than 50% control value) | L (50% or less control value) | H (more than 50% control value) | H (more than 50% control value) | H (more than 50% control value) | L (50% or less control value) | H (more than 50% control value) | H (more than 50% control value) | – | – | – | – | – | – | – | – | –
9 | CCc1cc(Cl)c(=O)n(C)c1-c1ccc(OC)cc1Br [compound 357] | – | – | – | – | – | – | – | – | H (more than 50% control value) | L (50% or less control value) | H (more than 50% control value) | L (50% or less control value) | H (more than 50% control value) | L (50% or less control value) | L (50% or less control value) | H (more than 50% control value) | –
10 | CCOC(C)(c1cc(Cl)c(=O)n(C)c1-c1c(F)cc(OC)cc1F)C(C)C (centres unmarked) [compound 489] | H (more than 50% control value) | L (50% or less control value) | H (more than 50% control value) | H (more than 50% control value) | H (more than 50% control value) | L (50% or less control value) | H (more than 50% control value) | H (more than 50% control value) | – | – | – | – | – | – | – | – | –
11 | CCC(C)(OC)c1cc(Cl)c(=O)n(C)c1-c1c(F)cc(OC)cc1F (centres unmarked) [compound 511] | H (more than 50% control value) | H (more than 50% control value) | H (more than 50% control value) | L (50% or less control value) | H (more than 50% control value) | L (50% or less control value) | H (more than 50% control value) | H (more than 50% control value) | – | – | – | – | – | – | – | – | –
12 | CCc1ccc(=O)n(C)c1-c1ccc(F)cc1C [compound 360] | – | – | – | – | – | – | – | – | L (50% or less control value) | L (50% or less control value) | L (50% or less control value) | L (50% or less control value) | L (50% or less control value) | H (more than 50% control value) | L (50% or less control value) | L (50% or less control value) | –
13 | CCCc1cc(Cl)c(=O)n(CCC)c1-c1c(F)cc(OC)cc1F [compound 443] | H (more than 50% control value) | H (more than 50% control value) | H (more than 50% control value) | L (50% or less control value) | H (more than 50% control value) | H (more than 50% control value) | H (more than 50% control value) | L (50% or less control value) | – | – | – | – | – | – | – | – | –
14 | CCCCCCCCc1ccc(=O)n(CC)c1-c1ccc(F)cc1Cl [compound 270] | – | – | – | – | – | – | – | – | L (50% or less control value) | L (50% or less control value) | L (50% or less control value) | H (more than 50% control value) | L (50% or less control value) | L (50% or less control value) | L (50% or less control value) | L (50% or less control value) | –
15 | CCOC(C)(c1cc(Cl)c(=O)n(CC)c1-c1ccc(F)cc1)C(C)C (centres unmarked) [compound 215] | – | – | – | – | – | – | – | – | L (50% or less control value) | L (50% or less control value) | L (50% or less control value) | H (more than 50% control value) | L (50% or less control value) | L (50% or less control value) | L (50% or less control value) | L (50% or less control value) | –
16 | CCn1c(-c2c(F)cc(F)cc2F)c(C(O)C(C)(C)C)cc(Cl)c1=O (racemic) [compound 163] | – | – | – | – | – | – | – | – | – | – | – | – | – | – | – | – | Test B control value class (Botrytis cinerea; Gray mold on tomato): H (more than 50% control value); Test G control value class (Plasmopara viticola; 250 ppm spray): H (more than 50% control value); Test H control value class ([1]; 250 ppm spray): H (more than 50% control value); Test D control value class ([2]; Powdery mildew on barley): H (more than 50% control value); Test E control value class (Puccinia recondita; Brown rust on wheat): H (more than 50% control value); Test F control value class (Phytophthora infestans; Late blight on tomato): L (50% or less control value); Test C control value class (Alternaia brassicicola; [14]): H (more than 50% control value); Test A control value class (Magnaporthe grisea; Blast on rice): H (more than 50% control value)

Source: patent US11147272B2, “Pyridone compounds and agricultural and horticultural fungicides comprising the same as active ingredients” (MITSUI CHEMICALS AGRO, INC., priority 2017, dated 2021)
